For one data set, the target named is GLP1R (Homo sapiens, UniProt P43220). The data set can be described thus: hGLP1R potency, cAMP accumulation in CHO-K1 cells stably overexpressing hGLP1R. Type of data set: cell-based. To be noted: for Selectivity: SCTR EC50/GLP1R EC50 ratio. The arrangement: host or cells: CHO-K1. The gist of the method:
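2000 cells/well, DPBS + 0.05% casein + 0.5 mM IBMX; 30 min RT stimulation; HTRF cAMP detection after 1 h. Purified: 3-fold ×11, n=2; crude: 10-fold ×5, n=1. EC50 by variable-slope fit.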
In general terms: cAMP levels reflect the balance of adenylyl cyclase and phosphodiesterase activity.

A short description of data set [1]: Turbidity of crude library peptides (absorbance at 600 nm). Type of data set: physicochemical. The settings on record: Physical stability of peptides. The gist of the method: (§1)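 Turbidity is the absorbance at 600 nm, taken before heating. Fibril signal is the mean ThT emission at 480 nm (450 nm excitation), read every 10 min over 72 h at 40° C with 700 rpm shaking between reads. Peptides at 267 μM, pH 4.0 acetate or pH 7.0 phosphate buffer (50 mM), 4 μM ThT final.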

A short description of data set [2]: Fibril formation of crude library peptides (Thioflavin T). The class given is physicochemical. The arrangement: key: average ThT fluorescence emission at 480 nm (ex 450 nm), raw units. To be noted: Physical stability of peptides. The gist of the method:
as §1

The next data set concerns the target SCTR (Homo sapiens, UniProt P47872). The data set can be described thus: hSCTR potency, cAMP accumulation in CHO-K1 cells stably overexpressing hSCTR. The arrangement: alternatively Euroscreen ES-712-AF; FAST-0161L; host or cells: CHO-K1. Type of data set: cell-based. The gist of the method: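 Thawed CHO-K1 cells carrying stable hSCTR are plated into casein/IBMX buffer (0.05%, 0.5 mM), dosed immediately for 30 min at room temperature, then cAMP is detected by TR-FRET. Purified peptides run as 11 three-fold dilutions in duplicate, and curves are fitted with variable slope.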

Where [3] appears, read: cAMP accumulation, CHO-K1 cells overexpressing hGLP1R, read-out: pEC50 hGLPR1 (converted).
[4] abbreviates: cAMP accumulation, CHO-K1 cells overexpressing hSCTR, read-out: pEC50 hSCTR (converted).

The results in this text go back to US20260201008A1, “SECRETIN-DERIVED GLP1R SELECTIVE AGONISTS” (GUBRA A/S, priority 2023, published 2026).

Structures are written as SMILES. Read-outs that look alike come from different tables or passages of the source. Numbered stars: 1 amine (or outer) side, 2 acyl side, 3 side chain; on linkers, the order of the positions; unused ones are H or OH. Square brackets hold non-standard residues; d marks the D form. Side chains are listed from the residue outwards. Peptide text beside a SMILES is read from it. * marks the point of attachment. C20 diacid = O=C(O)CCCCCCCCCCCCCCCCCCC(=O)*; γGlu = O=C(O)[C@H](CCC(=O)[*:2])N[*:1]; AEEA = NCCOCCOCC(=O)O; Aib = CC(C)(N)C(=O)O

SCTR, sequence (P47872 23-440): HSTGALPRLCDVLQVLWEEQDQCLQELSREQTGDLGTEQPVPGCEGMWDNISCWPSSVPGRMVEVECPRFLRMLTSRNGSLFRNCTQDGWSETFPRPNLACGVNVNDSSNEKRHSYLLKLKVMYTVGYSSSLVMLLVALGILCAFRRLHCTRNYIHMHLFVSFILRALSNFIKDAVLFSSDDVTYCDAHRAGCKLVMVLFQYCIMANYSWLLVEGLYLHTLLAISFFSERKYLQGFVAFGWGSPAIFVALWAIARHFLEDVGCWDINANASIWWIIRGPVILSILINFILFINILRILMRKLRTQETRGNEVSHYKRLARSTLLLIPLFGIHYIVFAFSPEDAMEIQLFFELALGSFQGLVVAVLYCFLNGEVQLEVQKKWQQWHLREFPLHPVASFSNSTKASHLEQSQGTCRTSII
GLP1R, sequence (P43220 24-463): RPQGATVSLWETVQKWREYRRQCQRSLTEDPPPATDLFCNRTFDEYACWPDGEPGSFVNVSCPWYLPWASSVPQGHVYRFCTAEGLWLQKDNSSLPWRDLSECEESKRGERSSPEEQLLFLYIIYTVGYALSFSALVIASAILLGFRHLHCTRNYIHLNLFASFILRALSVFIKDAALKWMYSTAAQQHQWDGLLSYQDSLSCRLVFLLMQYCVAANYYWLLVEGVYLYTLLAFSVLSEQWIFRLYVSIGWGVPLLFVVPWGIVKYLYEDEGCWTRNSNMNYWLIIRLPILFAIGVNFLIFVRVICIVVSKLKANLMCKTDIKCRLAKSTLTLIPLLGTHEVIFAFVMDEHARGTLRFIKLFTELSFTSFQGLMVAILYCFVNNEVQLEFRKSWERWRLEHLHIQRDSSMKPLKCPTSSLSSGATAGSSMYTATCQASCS

Regarding `CC(C)C[C@H](NC(=O)[C@H](Cc1ccccc1)NC(=O)[C@H](CCCNC(=N)N)NC(=O)[C@H](CCC(N)=O)NC(=O)[C@H](C)NC(=O)[C@H](C)NC(=O)[C@H](C)NC(=O)[C@@H](NC(=O)[C@H](CCC(=O)O)NC(=O)[C@H](CCCCNC(=O)COCCOCCNC(=O)COCCOCCNC(=O)CC[C@H](NC(=O)CCCCCCCCCCCCCCCCCCC(=O)O)C(=O)O)NC(=O)[C@H](CC(C)C)NC(=O)[C@@H](NC(=O)[C@H](CO)NC(=O)[C@@H](NC(=O)[C@H](CC(=O)O)NC(=O)[C@H](CO)NC(=O)[C@@H](NC(=O)[C@H](Cc1ccccc1)NC(=O)[C@@H](NC(=O)CNC(=O)[C@H](CCC(=O)O)NC(=O)C(C)(C)NC(=O)[C@@H](N)Cc1c[nH]cn1)[C@@H](C)O)[C@@H](C)O)C(C)C)C(C)C)[C@@H](C)O)C(=O)N[C@@H](CCC(=O)O)C(=O)N[C@@H](Cc1c[nH]cn1)C(=O)N[C@@H](CC(C)C)C(=O)N[C@H](C(N)=O)C(C)C` [compound 62] (H-H[Aib]EGTFTSDVSVLK([AEEA-AEEA-γGlu-C20 diacid])ETAAAQRFLEHLV-NH2), at GLP1R, the EC50 stood at 0.1 nM and the Selectivity stood at 18608. In data set [1], the “Turbidity (pH 7)” value came out at 0.08. In addition, the Fibril formation in data set [2] stood at 21979. Further, the EC50 at SCTR was 2000 nM.

As to `CC(C)C[C@H](NC(=O)[C@H](Cc1ccccc1)NC(=O)[C@H](CCCNC(=N)N)NC(=O)[C@H](CCC(N)=O)NC(=O)[C@H](C)NC(=O)[C@H](C)NC(=O)[C@H](C)NC(=O)[C@H](CCC(=O)O)NC(=O)[C@H](CCC(=O)O)NC(=O)[C@H](CCCCNC(=O)COCCOCCNC(=O)COCCOCCNC(=O)CC[C@H](NC(=O)CCCCCCCCCCCCCCCCCCC(=O)O)C(=O)O)NC(=O)[C@H](CC(C)C)NC(=O)[C@H](Cc1ccccc1)NC(=O)[C@H](CO)NC(=O)[C@@H](NC(=O)[C@H](CC(=O)O)NC(=O)[C@H](CO)NC(=O)[C@@H](NC(=O)[C@H](Cc1ccccc1)NC(=O)[C@@H](NC(=O)CNC(=O)[C@H](CCC(=O)O)NC(=O)C(C)(C)NC(=O)[C@@H](N)Cc1c[nH]cn1)[C@@H](C)O)[C@@H](C)O)C(C)C)C(=O)N[C@@H](CCC(=O)O)C(=O)N[C@@H](Cc1c[nH]cn1)C(=O)N[C@@H](CC(C)C)C(=O)N[C@H](C(N)=O)C(C)C` [compound 63] (H-H[Aib]EGTFTSDVSFLK([AEEA-AEEA-γGlu-C20 diacid])EEAAAQRFLEHLV-NH2), on GLP1R, the Selectivity came out at 201002. Also, the results for the EC50 on GLP1R (setting [3]) and at SCTR (setting [4]) were 0.0501 nM and 10000 nM, respectively. The “Turbidity (pH 7)” value in data set [1] is 0.09. The Fibril formation in data set [2] is 9044.

In the case of `CC(C)C[C@H](NC(=O)[C@H](Cc1ccccc1)NC(=O)[C@H](CCCNC(=N)N)NC(=O)[C@H](CCC(N)=O)NC(=O)C(C)(C)NC(=O)[C@H](C)NC(=O)[C@H](C)NC(=O)C(C)(C)NC(=O)[C@H](CCC(=O)O)NC(=O)[C@H](CCCCNC(=O)COCCOCCNC(=O)COCCOCCNC(=O)CC[C@H](NC(=O)CCCCCCCCCCCCCCCCCCC(=O)O)C(=O)O)NC(=O)[C@H](CC(C)C)NC(=O)[C@H](CCCNC(=N)N)NC(=O)[C@H](CO)NC(=O)[C@@H](NC(=O)[C@H](CC(=O)O)NC(=O)[C@H](CO)NC(=O)[C@@H](NC(=O)[C@H](Cc1ccccc1)NC(=O)[C@@H](NC(=O)CNC(=O)[C@H](CCC(=O)O)NC(=O)C(C)(C)NC(=O)[C@@H](N)Cc1c[nH]cn1)[C@@H](C)O)[C@@H](C)O)C(C)C)C(=O)N[C@@H](CCC(=O)O)C(=O)N[C@@H](Cc1c[nH]cn1)C(=O)N[C@@H](CC(C)C)C(=O)N[C@H](C(N)=O)C(C)C` [compound 64] (H-H[Aib]EGTFTSDVSRLK([AEEA-AEEA-γGlu-C20 diacid])E[Aib]AA[Aib]QRFLEHLV-NH2), the Selectivity at GLP1R is recorded as 4808. Besides, the results for the EC50 on GLP1R (setting [3]) and on SCTR (setting [4]) were 0.0631 nM and 316 nM, respectively. Besides, the “Turbidity (pH 7)” value in data set [1] was found to be 0.09. In data set [2], the Fibril formation is listed as 14614.

Consider `CC(C)C[C@H](NC(=O)[C@H](Cc1ccccc1)NC(=O)[C@H](CCCNC(=N)N)NC(=O)[C@H](CCC(N)=O)NC(=O)[C@@H](NC(=O)[C@H](C)NC(=O)[C@H](C)NC(=O)[C@H](CCC(=O)O)NC(=O)[C@H](CCC(=O)O)NC(=O)[C@H](CCCCNC(=O)COCCOCCNC(=O)COCCOCCNC(=O)CC[C@H](NC(=O)CCCCCCCCCCCCCCCCCCC(=O)O)C(=O)O)NC(=O)[C@H](CC(C)C)NC(=O)[C@H](CCCNC(=N)N)NC(=O)[C@H](CO)NC(=O)[C@@H](NC(=O)[C@H](CC(=O)O)NC(=O)[C@H](CO)NC(=O)[C@@H](NC(=O)[C@H](Cc1ccccc1)NC(=O)[C@@H](NC(=O)CNC(=O)[C@H](CCC(=O)O)NC(=O)C(C)(C)NC(=O)[C@@H](N)Cc1c[nH]cn1)[C@@H](C)O)[C@@H](C)O)C(C)C)[C@@H](C)O)C(=O)N[C@@H](CCC(=O)O)C(=O)N[C@@H](Cc1c[nH]cn1)C(=O)N[C@@H](CC(C)C)C(=O)N[C@H](C(N)=O)C(C)C` [compound 65] (H-H[Aib]EGTFTSDVSRLK([AEEA-AEEA-γGlu-C20 diacid])EEAATQRFLEHLV-NH2), for which the Selectivity at GLP1R is listed as 6482. Further, the EC50 on GLP1R (setting [3]) is 0.00316 nM; at SCTR (setting [4]), 25.1 nM. Also, the “Turbidity (pH 7)” value in data set [1] amounted to 0.09. In addition, in data set [2], the Fibril formation worked out at 9674.

For `CC(C)C[C@H](NC(=O)[C@H](Cc1ccccc1)NC(=O)[C@H](CCCNC(=N)N)NC(=O)[C@H](CCC(N)=O)NC(=O)[C@H](CO)NC(=O)[C@H](C)NC(=O)[C@H](C)NC(=O)[C@H](Cc1ccccc1)NC(=O)[C@H](CCC(=O)O)NC(=O)[C@H](CCCCNC(=O)COCCOCCNC(=O)COCCOCCNC(=O)CC[C@H](NC(=O)CCCCCCCCCCCCCCCCCCC(=O)O)C(=O)O)NC(=O)[C@H](CC(C)C)NC(=O)[C@H](Cc1ccc(O)cc1)NC(=O)[C@H](CO)NC(=O)[C@@H](NC(=O)[C@H](CC(=O)O)NC(=O)[C@H](CO)NC(=O)[C@@H](NC(=O)[C@H](Cc1ccccc1)NC(=O)[C@@H](NC(=O)CNC(=O)[C@H](CCC(=O)O)NC(=O)C(C)(C)NC(=O)[C@@H](N)Cc1c[nH]cn1)[C@@H](C)O)[C@@H](C)O)C(C)C)C(=O)N[C@@H](CCC(=O)O)C(=O)N[C@@H](Cc1c[nH]cn1)C(=O)N[C@@H](CC(C)C)C(=O)N[C@H](C(N)=O)C(C)C` [compound 66] (H-H[Aib]EGTFTSDVSYLK([AEEA-AEEA-γGlu-C20 diacid])EFAASQRFLEHLV-NH2), the Selectivity on GLP1R came to 81752. In addition, the values for the EC50 on GLP1R (setting [3]) and at SCTR (setting [4]) were 0.0398 nM and 3160 nM, respectively. Further, the “Turbidity (pH 7)” value in data set [1] turned out to be 0.08. Further, in data set [2], the Fibril formation is given as 201306.

In the case of `CC(C)C[C@H](NC(=O)[C@H](CCC(=O)O)NC(=O)[C@H](CCCCNC(=O)COCCOCCNC(=O)COCCOCCNC(=O)CC[C@H](NC(=O)CCCCCCCCCCCCCCCCCCC(=O)O)C(=O)O)NC(=O)[C@H](CC(C)C)NC(=O)[C@@H](NC(=O)[C@H](CO)NC(=O)[C@@H](NC(=O)[C@H](CC(=O)O)NC(=O)[C@H](CO)NC(=O)[C@@H](NC(=O)[C@H](Cc1ccccc1)NC(=O)[C@@H](NC(=O)CNC(=O)[C@H](CCC(=O)O)NC(=O)C(C)(C)NC(=O)[C@@H](N)Cc1c[nH]cn1)[C@@H](C)O)[C@@H](C)O)C(C)C)[C@@H](C)O)C(=O)N[C@@H](C)C(=O)N[C@@H](C)C(=O)N[C@H](C(=O)N[C@@H](CCC(N)=O)C(=O)N[C@@H](CCCNC(=N)N)C(=O)N[C@@H](Cc1ccccc1)C(=O)N[C@@H](CC(C)C)C(=O)N[C@@H](CCC(=O)O)C(=O)N[C@@H](Cc1c[nH]cn1)C(=O)N[C@@H](CC(C)C)C(=O)N[C@H](C(N)=O)C(C)C)[C@@H](C)O` [compound 67] (H-H[Aib]EGTFTSDVSTLK([AEEA-AEEA-γGlu-C20 diacid])ELAATQRFLEHLV-NH2), the Selectivity at GLP1R worked out at 7155. Further, the EC50 at GLP1R (setting [3]) is 0.0501 nM; on SCTR (setting [4]), 398 nM. In addition, the “Turbidity (pH 7)” value in data set [1] was 0.08. Moreover, the Fibril formation in data set [2] is 5041.

Regarding `CC(C)C[C@H](NC(=O)[C@H](Cc1ccccc1)NC(=O)[C@H](CCCNC(=N)N)NC(=O)[C@H](CCC(N)=O)NC(=O)C(C)(C)NC(=O)[C@H](C)NC(=O)[C@H](C)NC(=O)[C@H](Cc1ccccc1)NC(=O)[C@H](CCC(=O)O)NC(=O)[C@H](CCCCNC(=O)COCCOCCNC(=O)COCCOCCNC(=O)CC[C@H](NC(=O)CCCCCCCCCCCCCCCCCCC(=O)O)C(=O)O)NC(=O)[C@H](CC(C)C)NC(=O)[C@H](CCCNC(=N)N)NC(=O)[C@H](CO)NC(=O)[C@@H](NC(=O)[C@H](CC(=O)O)NC(=O)[C@H](CO)NC(=O)[C@@H](NC(=O)[C@H](Cc1ccccc1)NC(=O)[C@@H](NC(=O)CNC(=O)[C@H](CCC(=O)O)NC(=O)C(C)(C)NC(=O)[C@@H](N)Cc1c[nH]cn1)[C@@H](C)O)[C@@H](C)O)C(C)C)C(=O)N[C@@H](CCC(=O)O)C(=O)N[C@@H](Cc1c[nH]cn1)C(=O)N[C@@H](CC(C)C)C(=O)N[C@H](C(N)=O)C(C)C` [compound 68] (H-H[Aib]EGTFTSDVSRLK([AEEA-AEEA-γGlu-C20 diacid])EFAA[Aib]QRFLEHLV-NH2), the Selectivity at GLP1R is 11839. Also, the EC50 at GLP1R (setting [3]) is 0.1 nM; at SCTR (setting [4]), 1260 nM. Further, the “Turbidity (pH 7)” value in data set [1] is on record as 0.08. Also, in data set [2], the Fibril formation stood at 13444.
